Laboratory results published in patent EP0643712B1, “SPIRO-OXETANES, PROCESS FOR PREPARING THE SAME AND MEDICAMENTS” (BOEHRINGER MANNHEIM GMBH, priority 1992, dated 1993).

Columns and labels:
[1] = molecular target: T1, humane rekombinante Typ II PLA2 (Homo sapiens, UniProt P14555); assay: In-vitro inhibition of PLA2 enzyme activity; assay type: biochemical; conditions: for inhibition at 1 µg/mL / inhibition at 10 µg/mL / inhibition at 100 µg/mL: read-out: PLA2 in % (Hemmung der Enzymaktivität); for PLA2 in % (Hemmung der Enzymaktivität) / inhibition at 100 µg/mL: 100 µg/ml
T1 sequence (P14555 21-144): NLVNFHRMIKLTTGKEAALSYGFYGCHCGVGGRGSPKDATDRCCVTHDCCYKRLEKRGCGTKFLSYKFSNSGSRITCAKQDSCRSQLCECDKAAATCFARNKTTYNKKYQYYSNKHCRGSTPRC
Description: Als typischer Vertreter einer PLA2 wurde die humane rekombinante Typ-II-PLA2 (= synoviale PLA2) zur Testung eingesetzt.
Die Tabelle 1 enthält die prozentuale in-vitro Hemmung dieses Enzyms durch die Verbindung des Beispiels 1, einen Spiro-Oxetan-Vertreter. Das Enzym wird dosisabhängig bis zu 93 % inhibiert.

[2] = tested on: humanen Thrombozyten; assay: Inhibition of collagen-induced arachidonic acid (3H-AA) release from platelets; assay type: cell-based; conditions: Homo sapiens, Platelet, read-out: AA in % (Hemmung der Collagen induzierten Arachidonsäurefreisetzung)
Description: Als weiterer Indikator einer PLA2-Inhibition gilt eine Hemmung der AA-Freisetzung aus Thrombozyten. Zu diesem Zweck werden die Thrombozyten mit ^3H-AA inkubiert. Diese zugegebene radioaktive Arachidonsäure baut sich in Membranphospholipide ein. Anschließend wird die thrombozytäre PLA2 über den Collagenrezeptor aktiviert und ^3H-AA so aus Phospholipen wieder ins Medium freigesetzt, wo sie quantifiziert werden kann.

Row | SMILES | inhibition at 1 µg/mL [1] [%] | inhibition at 10 µg/mL [1] [%] | PLA2 in % (Hemmung der Enzymaktivität) [1] [%] | inhibition at 100 µg/mL [1] [%] | inhibition at 1 µg/mL [2] [%] | inhibition at 10 µg/mL [2] [%] | inhibition at 100 µg/mL [2] [%]
1 | O=C1C=CC2(C=C1)CC1(CCC(=O)O1)O2 (centres unmarked) [Bsp. 1, 1,6-Dioxadispiro[4.1.5.1]trideca-8,11-dien-2,10-dion] | 11 | 37 | 93 | ≤ 93 | 42 | 86 | 100
2 | COc1ccc2c(c1)c(CC(=O)O)c(C)n2C(=O)c1ccc(Cl)cc1 [Indomethacin] | 0 | 10 | 52 | 52 | 6 | 18 | 23
